Test results published in PubChem BioAssay (NCI).
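Five compound concentrations were applied to cells in 96-well plates for 48 hours; endpoints were derived by simple linear interpolation of the resulting dose-response curve. GI50 = concentration required for 50% inhibition of growth. TGI is the concentration that stops growth completely.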

Legend:
Experiment in all cases: DTP human tumour cell line panel, 48 h
MOLT-4 leukemia = test system: MOLT-4 leukemia
BT-549 breast = test system: BT-549 breast
DU-145 prostate = test system: DU-145 prostate
RPMI-8226 leukemia = test system: RPMI-8226 leukemia
NCI-H522 lung = test system: NCI-H522 lung
IGROV1 ovarian = test system: IGROV1 ovarian
HCC-2998 colon = test system: HCC-2998 colon
SK-OV-3 ovarian = test system: SK-OV-3 ovarian
SF-539 CNS = test system: SF-539 CNS
SF-295 CNS = test system: SF-295 CNS

CC(C)Nc1ncc2cc(Oc3ccc(F)cc3F)c(=O)n(C)c2n1
GI50 (MOLT-4 leukemia): > 25 µM | TGI (MOLT-4 leukemia): > 25 µM | GI50 (BT-549 breast): > 25 µM | TGI (BT-549 breast): > 25 µM | GI50 (DU-145 prostate): > 25 µM | TGI (DU-145 prostate): > 25 µM | GI50 (RPMI-8226 leukemia): > 25 µM | TGI (RPMI-8226 leukemia): > 25 µM | GI50 (NCI-H522 lung): > 25 µM | TGI (NCI-H522 lung): > 25 µM | GI50 (IGROV1 ovarian): > 25 µM | TGI (IGROV1 ovarian): > 25 µM | GI50 (HCC-2998 colon): > 25 µM | TGI (HCC-2998 colon): > 25 µM | GI50 (SK-OV-3 ovarian): > 25 µM | TGI (SK-OV-3 ovarian): > 25 µM | GI50 (SF-539 CNS): > 25 µM | TGI (SF-539 CNS): > 25 µM | GI50 (SF-295 CNS): > 25 µM | TGI (SF-295 CNS): > 25 µM

CC1(C)CC(Nc2ccc(Nc3ccccc3)cc2)CC(C)(C)N1
TGI (MOLT-4 leukemia): 53.7 µM | TGI (BT-549 breast): 27 µM | TGI (DU-145 prostate): 61.1 µM | TGI (RPMI-8226 leukemia): 37.3 µM | TGI (NCI-H522 lung): 26.6 µM | TGI (IGROV1 ovarian): 78.6 µM | TGI (HCC-2998 colon): 32.7 µM | TGI (SK-OV-3 ovarian): > 100 µM | TGI (SF-539 CNS): 41.9 µM | TGI (SF-295 CNS): > 95.3 µM

NC(=O)c1ccc2nc3c(n2c1)C(=O)C(=O)c1ccccc1-3
GI50 (MOLT-4 leukemia): 1.02 µM | TGI (MOLT-4 leukemia): 4.21 µM | GI50 (BT-549 breast): 1.36 µM | TGI (BT-549 breast): 2.65 µM | GI50 (DU-145 prostate): 0.928 µM | TGI (DU-145 prostate): 2.24 µM | GI50 (RPMI-8226 leukemia): 2.2 µM | TGI (RPMI-8226 leukemia): 5.52 µM | GI50 (NCI-H522 lung): 0.679 µM | TGI (NCI-H522 lung): 2.18 µM | GI50 (IGROV1 ovarian): 1.63 µM | TGI (IGROV1 ovarian): 3.34 µM | GI50 (HCC-2998 colon): 1.6 µM | TGI (HCC-2998 colon): 3.13 µM | GI50 (SK-OV-3 ovarian): 1.78 µM | TGI (SK-OV-3 ovarian): 3.18 µM | GI50 (SF-539 CNS): 0.621 µM | TGI (SF-539 CNS): 1.85 µM | GI50 (SF-295 CNS): 1.67 µM | TGI (SF-295 CNS): 3.07 µM

C=C1C(=O)O[C@H]2[C@H]1CC/C(Cn1cc(-c3cc(C)c(C)cc3C)nn1)=C\CC[C@@]1(C)O[C@@H]21
GI50 (MOLT-4 leukemia): 2.38 µM | TGI (MOLT-4 leukemia): 7.34 µM | GI50 (BT-549 breast): 0.753 µM | TGI (BT-549 breast): 2.66 µM | GI50 (DU-145 prostate): 1.35 µM | TGI (DU-145 prostate): 2.63 µM | GI50 (RPMI-8226 leukemia): 1.18 µM | TGI (RPMI-8226 leukemia): 4.11 µM | GI50 (NCI-H522 lung): 0.282 µM | TGI (NCI-H522 lung): 1.17 µM | GI50 (IGROV1 ovarian): 1.29 µM | TGI (IGROV1 ovarian): 2.74 µM | GI50 (HCC-2998 colon): 1.72 µM | TGI (HCC-2998 colon): 3.33 µM | GI50 (SK-OV-3 ovarian): 11.7 µM | TGI (SK-OV-3 ovarian): 23.9 µM | GI50 (SF-539 CNS): 1.16 µM | TGI (SF-539 CNS): 2.43 µM | GI50 (SF-295 CNS): 6.44 µM | TGI (SF-295 CNS): 20.7 µM

Cc1c(N=Cc2ccc(N(CCC#N)CCC#N)cc2)c(=O)n(-c2ccccc2)n1C
TGI (MOLT-4 leukemia): > 100 µM | TGI (BT-549 breast): > 100 µM | TGI (DU-145 prostate): > 100 µM | TGI (RPMI-8226 leukemia): > 100 µM | TGI (NCI-H522 lung): > 100 µM | TGI (IGROV1 ovarian): > 100 µM | TGI (HCC-2998 colon): > 100 µM | TGI (SK-OV-3 ovarian): > 100 µM | TGI (SF-539 CNS): 86.5 µM | TGI (SF-295 CNS): 71.6 µM

CC(C)c1ccc(NC(=S)NC(=O)c2ccccc2)cc1
TGI (MOLT-4 leukemia): 52.3 µM | TGI (BT-549 breast): 60.6 µM | TGI (DU-145 prostate): 70.8 µM | TGI (RPMI-8226 leukemia): > 100 µM | TGI (NCI-H522 lung): 37.5 µM | TGI (IGROV1 ovarian): 68.4 µM | TGI (HCC-2998 colon): 39.4 µM | TGI (SK-OV-3 ovarian): > 100 µM | TGI (SF-539 CNS): > 100 µM | TGI (SF-295 CNS): 32.5 µM

Nc1nc(-c2cccc([N+](=O)[O-])c2)cc(-c2cc(-c3cccc([N+](=O)[O-])c3)nc(N)n2)n1
TGI (MOLT-4 leukemia): > 100 µM | TGI (BT-549 breast): > 100 µM | TGI (DU-145 prostate): > 100 µM | TGI (RPMI-8226 leukemia): > 100 µM | TGI (NCI-H522 lung): > 100 µM | TGI (IGROV1 ovarian): > 100 µM | TGI (HCC-2998 colon): > 100 µM | TGI (SK-OV-3 ovarian): > 100 µM | TGI (SF-539 CNS): > 100 µM | TGI (SF-295 CNS): > 100 µM

CC(=O)OC1Oc2ccccc2-c2oc(=O)c(-c3cc4ccccc4oc3=O)cc21 (stereo not given)
GI50 (MOLT-4 leukemia): 25.4 µM | TGI (MOLT-4 leukemia): 81.8 µM | GI50 (BT-549 breast): 18.6 µM | TGI (BT-549 breast): 40.1 µM | GI50 (DU-145 prostate): 20.1 µM | TGI (DU-145 prostate): 52.5 µM | GI50 (RPMI-8226 leukemia): 18.7 µM | TGI (RPMI-8226 leukemia): 41.2 µM | GI50 (NCI-H522 lung): 18.5 µM | TGI (NCI-H522 lung): 36.3 µM | GI50 (IGROV1 ovarian): 20.5 µM | TGI (IGROV1 ovarian): 48.6 µM | GI50 (HCC-2998 colon): 57.7 µM | TGI (HCC-2998 colon): > 100 µM | GI50 (SK-OV-3 ovarian): 13.7 µM | TGI (SK-OV-3 ovarian): 30 µM | GI50 (SF-539 CNS): 19.8 µM | TGI (SF-539 CNS): 39.2 µM | GI50 (SF-295 CNS): 18.6 µM | TGI (SF-295 CNS): 41.3 µM
